From patent US11285189B2, “Compositions and uses of locally-applied antimicrobial synthetic cationic polypeptide(s) with enhanced performance and safety” (priority 2017, dated 2022)

Tests used:
[1] = Surface tension, Du Nouy ring; assay type: physicochemical; conditions: samples at 0.1 mM, room temperature
Procedure: Samples were prepared at 0.1 mM and assessed using TA.XT2 Texture Analyzer with a 500 g load cell, 5 cm diameter Du Nouy ring and probe speed of 0.2 mm/s at room temperature.
Surface tension of various preparations of synthetic cationic polypeptide(s) in water. Samples were prepared at 0.1 mM and assessed using TA.XT2 Texture Analyzer with a 500 g load cell, 5 cm diameter Du Nouy ring and probe speed of 0.2 mm/s at room temperature.
Surface tension: effect of acetic acid as an additive.

[2] = Kinematic viscosity, glass capillary (Ubbelohde) viscometers, 37° C.; assay type: physicochemical; conditions: 1 and 2 wt %
Procedure: FIGS. 13A-B. (a) Kinematic viscosity of various synthetic cationic polypeptide(s) in water at 1 wt % and measured using glass capillary viscometers (Ubbelohde viscometers) at a temperature of 37° C. (b) Kinematic viscosity of KrL-100/5.7 (lot BAC02) vs. bovine serum albumin; water is provided for reference.
FIG. 14. Kinematic viscosity of synthetic cationic polypeptide(s) with a lysine-L-leucine block sequence arrangement (KL) in water at 0.5 wt % and measured using glass capillary viscometers (Ubbelohde viscometers) at a temperature of 37° C.
FIG. 13A depicts kinematic viscosity values of various synthetic cationic polypeptide(s) in water at 1 wt % as measured using glass capillary viscometers (Ubbelohde viscometers). […] Albumin is an abundant blood protein and has a molecular weight of approximately 66.5 kDa and total chain length of approximately 583 amino acids units.
The latter has a longer overall chain length, a similar sized hydrophobic block, but a different composition of hydrophobic amino acid units (racemic D,L-leucine vs. enantiopure L-leucine).

Question: Which “effect on surface tension of water” value [1] does the source give for `[H]/N=C(\N/C(=N/[H])NCCCCCCNC(=N)NC(=N)Nc1ccc(Cl)cc1)Nc1ccc(Cl)cc1` [chlorhexidine, chlorhexidine gluconate] here?
Answer: little or no effect

Question: With “bovine serum albumin: abundant blood protein, approximately 66.5 kDa, approximately 583 amino acid units” as the molecule, how does the “effect on viscosity of aqueous preparations” value [2] read?
Answer: little, if any effect on viscosity

Question: With polyhexamethylene biguanide [PHMB] as the molecule, how does the “effect on surface tension of water” value [1] read?
Answer: little or no effect
